Among the test systems are HOP-62 NSCLC; MCF7 breast; A498 renal; NCI-H460 lung; MOLT-4 leukemia; RPMI-8226 leukemia; U251 CNS; HT29 colon; SF-539 CNS; SN12C renal.
Assay in all cases: growth of human tumour cells (NCI), 48 h

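The compound was tested at five concentrations on cells cultured in 96-well plates, with a 48-hour exposure period. GI50: concentration for 50% inhibition of growth. The concentration for full growth arrest is given as TGI.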

Regarding `CCCCCCCCSC1=CC(=O)C(OC)=C(OC)C1=O`, the GI50 is 11.1 µM with HOP-62 NSCLC; 1.91 µM with MCF7 breast; 6.13 µM with A498 renal; 6.29 µM in the test on NCI-H460 lung; 1.87 µM in the test with MOLT-4 leukemia; 1.27 µM with RPMI-8226 leukemia. In addition, the GI50 with U251 CNS is 2.8 µM; in the test with HT29 colon, 3.75 µM; with SF-539 CNS, 2.54 µM; in the test with SN12C renal, 5.21 µM. For the same compound, the TGI in the test with HOP-62 NSCLC was 24.4 µM; in the test with MCF7 breast it was 14.1 µM; in the test with A498 renal, 20.4 µM; in the test with NCI-H460 lung, 19.8 µM; in the test with MOLT-4 leukemia, > 100 µM; in the test on RPMI-8226 leukemia it was > 100 µM. Besides, the TGI with U251 CNS worked out at 11.7 µM; with HT29 colon it was 12.6 µM; in the test with SF-539 CNS, 5.9 µM; with SN12C renal, 18.4 µM.
With `CCN(CCCl)CCNc1c2ccccc2nc2ccc(OC)cc12`, the TGI in the test with HOP-62 NSCLC came to 3.85 µM; in the test on MCF7 breast it was 3.55 µM; with A498 renal, 6.64 µM; in the test on NCI-H460 lung, 2.2 µM; with MOLT-4 leukemia, 0.341 µM; with RPMI-8226 leukemia it was 1.37 µM. In addition, the TGI was 4.78 µM with U251 CNS, 2.13 µM in the test with HT29 colon, 2.34 µM with SF-539 CNS and 2.85 µM with SN12C renal.
`CC(O)CN(CCN(CC(C)O)CC(C)O)CC(C)O.O=[N+]([O-])O.[Cu+2]` (stereo not drawn): the GI50 is > 100 µM with HOP-62 NSCLC; 93.1 µM in the test with MCF7 breast; 30.9 µM in the test on A498 renal; 99.2 µM in the test with NCI-H460 lung; > 100 µM in the test on MOLT-4 leukemia; > 100 µM in the test on RPMI-8226 leukemia. Also, the GI50 in the test with U251 CNS, in the test on HT29 colon, in the test with SF-539 CNS and in the test on SN12C renal was > 100 µM in each case. For the same compound, the TGI was > 100 µM with HOP-62 NSCLC; > 100 µM in the test on MCF7 breast; 63.3 µM in the test with A498 renal; > 100 µM with NCI-H460 lung; > 100 µM in the test on MOLT-4 leukemia; > 100 µM in the test with RPMI-8226 leukemia. For the same compound, the TGI in the test with U251 CNS, in the test on HT29 colon, in the test on SF-539 CNS and in the test on SN12C renal was > 100 µM each time.
Regarding `O=Nc1c(-c2cccc([N+](=O)[O-])c2)nc2ncccn12`, the GI50 is 20.9 µM with HOP-62 NSCLC; 3.51 µM in the test on MCF7 breast; 17.4 µM in the test on A498 renal; 17.8 µM in the test on NCI-H460 lung; 1.79 µM with MOLT-4 leukemia; 1.47 µM in the test with RPMI-8226 leukemia. Moreover, the GI50 in the test with U251 CNS was 13.9 µM; in the test with HT29 colon it was 9.84 µM; in the test with SF-539 CNS, 15.8 µM; with SN12C renal, 16.4 µM. Besides, the TGI in the test with HOP-62 NSCLC stood at 48.7 µM; in the test with MCF7 breast, 22.6 µM; with A498 renal it was 38.3 µM; with NCI-H460 lung, 54.8 µM; in the test with MOLT-4 leukemia, 5.31 µM; with RPMI-8226 leukemia it was 6.56 µM. Further, the TGI was 32.5 µM with U251 CNS, 44.1 µM with HT29 colon, 31 µM in the test on SF-539 CNS and 42.3 µM in the test on SN12C renal.
Consider `COC(=O)c1oc2c(C(=O)/C=C/c3ccc(OC)cc3)c(OCCCN3CCCCC3)ccc2c1C`, for which the GI50 is 1.67 µM in the test on HOP-62 NSCLC; 1.15 µM in the test with MCF7 breast; 1.44 µM with A498 renal; 1.54 µM in the test on NCI-H460 lung; 1.6 µM in the test on MOLT-4 leukemia; 1.72 µM with RPMI-8226 leukemia. Besides, the GI50 in the test on U251 CNS is 1.49 µM; in the test on HT29 colon, 1.49 µM; with SF-539 CNS, 1.45 µM; with SN12C renal it was 1.75 µM. For the same compound, the TGI with HOP-62 NSCLC amounted to 3.48 µM; in the test with MCF7 breast, 2.5 µM; in the test on A498 renal, 4.54 µM; in the test on NCI-H460 lung it was 3.18 µM; in the test with MOLT-4 leukemia, 4.97 µM; in the test with RPMI-8226 leukemia it was 4 µM. Further, the TGI in the test on U251 CNS was 2.88 µM; with HT29 colon, 3.22 µM; in the test on SF-539 CNS it was 2.91 µM; in the test with SN12C renal, 4.86 µM.
On to `Fc1ccc(Nc2nc(Nc3ccc(-c4nc5ccccc5[nH]4)cc3)nc(N3CCCC3)n2)cc1`, for which the GI50 is 2.12 µM with HOP-62 NSCLC; 1.9 µM in the test on MCF7 breast; 12.8 µM in the test with A498 renal; 2 µM in the test with NCI-H460 lung; 2.19 µM in the test with MOLT-4 leukemia; 2.28 µM in the test on RPMI-8226 leukemia. Further, the GI50 is 2.37 µM with U251 CNS, 2.54 µM with HT29 colon, 2.08 µM with SF-539 CNS and 2.25 µM in the test with SN12C renal. The TGI in the test on HOP-62 NSCLC amounted to 5.09 µM; in the test on MCF7 breast, 5.22 µM; with A498 renal it was 25.7 µM; in the test with NCI-H460 lung, 4.2 µM; with MOLT-4 leukemia, 5.74 µM; in the test with RPMI-8226 leukemia, 6.3 µM. Further, the TGI is 5.82 µM in the test with U251 CNS, 5.62 µM in the test on HT29 colon, 4.26 µM in the test with SF-539 CNS and 5.24 µM in the test on SN12C renal.
On to `C[n+]1c2ccccc2c(NC2CCNCC2)c2[nH]c3ccccc3c21`, for which the GI50 is 0.473 µM with HOP-62 NSCLC; 0.231 µM in the test with MCF7 breast; 1.35 µM in the test on A498 renal; 0.223 µM with NCI-H460 lung; 0.114 µM in the test with MOLT-4 leukemia; 0.164 µM with RPMI-8226 leukemia. The GI50 with U251 CNS was 0.198 µM; in the test with HT29 colon it was 0.18 µM; in the test with SF-539 CNS, 1.48 µM; in the test on SN12C renal it was 0.0324 µM. For the same compound, the TGI in the test with HOP-62 NSCLC was 5.17 µM; in the test with MCF7 breast, 2.2 µM; with A498 renal, 5.05 µM; in the test on NCI-H460 lung it was 1.53 µM; in the test on RPMI-8226 leukemia, 1.17 µM; with U251 CNS it was 1.91 µM. The TGI worked out at 2.64 µM in the test with HT29 colon, 6.83 µM in the test on SF-539 CNS and 0.314 µM in the test with SN12C renal.
`CC(C)[C@]12O[C@H]1[C@@H]1O[C@]13[C@]1(O[C@H]1C[C@H]1c4c(C(=O)c5ccccc5)oc(OC(=O)c5ccccc5)c4CC[C@@]13C)[C@@H]2O`: the GI50 with HOP-62 NSCLC is 0.0278 µM; in the test with MCF7 breast, 0.0139 µM; in the test on A498 renal, 0.0179 µM; in the test with MOLT-4 leukemia, 0.0236 µM; in the test on RPMI-8226 leukemia, < 0.0148 µM; in the test with U251 CNS, 0.0863 µM. In addition, the GI50 is 0.0172 µM with HT29 colon, 0.0282 µM with SF-539 CNS and 0.0249 µM in the test with SN12C renal. The TGI in the test with HOP-62 NSCLC is 0.735 µM; with MCF7 breast, 19.9 µM; in the test with A498 renal, 0.0614 µM; in the test on NCI-H460 lung it was 11.4 µM; in the test with MOLT-4 leukemia it was > 31.6 µM; in the test on RPMI-8226 leukemia, 1.06 µM. For the same compound, the TGI with U251 CNS is > 100 µM; in the test with HT29 colon, > 38 µM; in the test on SF-539 CNS, 0.115 µM; in the test with SN12C renal, 52.2 µM.

The values are drawn from PubChem BioAssay (NCI).
